What all share (assay): biochemical
Type in all cases: binding

The target of assay [1] is T1, panel of 442 kinases (Homo sapiens, UniProt P21802).
T1 construct: purchased Ambit Biosciences (scanMAXX KINOMEscan)
To be noted: FGFR2; for remaining activity at 1 µM: read-out: % of control at 1 µM.

Assay [2] addresses T2, panel of 442 kinases (Homo sapiens, UniProt Q13188).
T2 construct: purchased Ambit Biosciences (scanMAXX KINOMEscan)
T2 sequence (Q13188 1-491): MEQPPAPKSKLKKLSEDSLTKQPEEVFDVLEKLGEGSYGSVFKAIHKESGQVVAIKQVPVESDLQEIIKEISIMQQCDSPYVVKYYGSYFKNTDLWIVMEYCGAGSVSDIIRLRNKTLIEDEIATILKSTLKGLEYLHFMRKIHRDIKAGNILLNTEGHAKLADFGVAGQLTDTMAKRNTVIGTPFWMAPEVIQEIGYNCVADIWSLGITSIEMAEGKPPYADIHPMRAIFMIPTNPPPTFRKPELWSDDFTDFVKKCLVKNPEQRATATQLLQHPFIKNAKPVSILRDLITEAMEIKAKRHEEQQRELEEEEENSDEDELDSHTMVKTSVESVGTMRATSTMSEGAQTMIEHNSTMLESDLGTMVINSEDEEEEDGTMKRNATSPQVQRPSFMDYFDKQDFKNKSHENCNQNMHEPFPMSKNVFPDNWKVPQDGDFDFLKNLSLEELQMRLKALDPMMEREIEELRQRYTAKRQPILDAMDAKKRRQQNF
Conditions: kinase MST2; for remaining activity at 1 µM: read-out: % of control at 1 µM.

The target of assay [3] is T3, panel of 442 kinases (Homo sapiens, UniProt P00533, DEL752-759).
T3 construct: purchased Ambit Biosciences (scanMAXX KINOMEscan)
Conditions: EGFR(S752-I759del); for remaining activity at 1 µM: read-out: % of control at 1 µM.

For assay [4], the target named is T4, panel of 442 kinases (Homo sapiens, UniProt Q8N4C8).
T4 construct: purchased Ambit Biosciences (scanMAXX KINOMEscan)
Conditions: kinase MINK; for remaining activity at 1 µM: read-out: % of control at 1 µM.

Assay [5] has as its target T5, panel of 442 kinases (Homo sapiens, UniProt Q05655).
T5 construct: purchased Ambit Biosciences (scanMAXX KINOMEscan)
Conditions: kinase PRKCD; for remaining activity at 1 µM: read-out: PRKCD (% of control at 1 µM).

For assay [6], the target named is T6, panel of 442 kinases (Homo sapiens, UniProt Q9BRS2).
T6 construct: purchased Ambit Biosciences (scanMAXX KINOMEscan)
T6 sequence (Q9BRS2 1-568): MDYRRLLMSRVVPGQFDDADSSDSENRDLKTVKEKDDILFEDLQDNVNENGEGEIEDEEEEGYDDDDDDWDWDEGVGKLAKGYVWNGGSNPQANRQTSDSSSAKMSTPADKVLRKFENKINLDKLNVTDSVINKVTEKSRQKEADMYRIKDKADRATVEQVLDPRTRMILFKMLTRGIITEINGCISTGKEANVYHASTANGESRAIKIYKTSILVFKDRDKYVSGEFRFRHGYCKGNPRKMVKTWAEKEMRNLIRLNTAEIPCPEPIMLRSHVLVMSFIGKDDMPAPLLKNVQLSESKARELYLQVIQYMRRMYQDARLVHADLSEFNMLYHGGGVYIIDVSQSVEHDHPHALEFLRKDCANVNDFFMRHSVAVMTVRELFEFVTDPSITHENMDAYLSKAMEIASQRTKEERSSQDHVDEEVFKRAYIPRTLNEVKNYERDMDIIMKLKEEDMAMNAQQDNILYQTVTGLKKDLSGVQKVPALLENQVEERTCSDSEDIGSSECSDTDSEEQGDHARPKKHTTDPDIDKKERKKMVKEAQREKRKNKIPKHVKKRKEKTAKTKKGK
To be noted: kinase RIOK1; for remaining activity at 1 µM: read-out: RIOK1 (% of control at 1 µM).

Assay [7] concerns the target T7, panel of 442 kinases (Homo sapiens, UniProt Q5S007).
T7 construct: purchased Ambit Biosciences (scanMAXX KINOMEscan)
To be noted: kinase LRRK2; for remaining activity at 1 µM: read-out: % of control at 1 µM.

Assay [8] has as its target T8, panel of 442 kinases (Homo sapiens, UniProt Q13546).
T8 construct: purchased Ambit Biosciences (scanMAXX KINOMEscan)
T8 sequence (Q13546 1-671): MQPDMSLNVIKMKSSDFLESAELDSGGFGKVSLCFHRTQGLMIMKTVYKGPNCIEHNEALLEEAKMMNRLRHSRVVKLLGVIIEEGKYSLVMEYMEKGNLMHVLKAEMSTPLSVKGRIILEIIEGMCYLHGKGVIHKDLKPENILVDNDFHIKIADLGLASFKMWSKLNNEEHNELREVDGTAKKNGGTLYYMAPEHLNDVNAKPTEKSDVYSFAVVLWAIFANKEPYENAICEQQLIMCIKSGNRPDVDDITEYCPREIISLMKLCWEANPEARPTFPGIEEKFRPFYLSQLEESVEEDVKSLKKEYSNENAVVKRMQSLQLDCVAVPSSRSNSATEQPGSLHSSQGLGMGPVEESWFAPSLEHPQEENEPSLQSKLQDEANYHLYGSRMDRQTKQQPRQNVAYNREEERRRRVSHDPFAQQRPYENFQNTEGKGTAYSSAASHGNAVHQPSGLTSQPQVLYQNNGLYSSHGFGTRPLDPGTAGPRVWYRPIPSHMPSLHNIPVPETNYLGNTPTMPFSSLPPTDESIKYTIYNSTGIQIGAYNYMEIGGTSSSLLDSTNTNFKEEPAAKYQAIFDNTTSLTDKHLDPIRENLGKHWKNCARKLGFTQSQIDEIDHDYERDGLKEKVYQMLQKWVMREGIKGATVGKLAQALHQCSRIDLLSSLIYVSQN
To be noted: kinase RIPK1; for remaining activity at 1 µM: read-out: RIPK1 (% of control at 1 µM).

The target in assay [9] is T9, panel of 442 kinases (Homo sapiens, UniProt Q9BVS4).
T9 construct: purchased Ambit Biosciences (scanMAXX KINOMEscan)
T9 sequence (Q9BVS4 whole entry): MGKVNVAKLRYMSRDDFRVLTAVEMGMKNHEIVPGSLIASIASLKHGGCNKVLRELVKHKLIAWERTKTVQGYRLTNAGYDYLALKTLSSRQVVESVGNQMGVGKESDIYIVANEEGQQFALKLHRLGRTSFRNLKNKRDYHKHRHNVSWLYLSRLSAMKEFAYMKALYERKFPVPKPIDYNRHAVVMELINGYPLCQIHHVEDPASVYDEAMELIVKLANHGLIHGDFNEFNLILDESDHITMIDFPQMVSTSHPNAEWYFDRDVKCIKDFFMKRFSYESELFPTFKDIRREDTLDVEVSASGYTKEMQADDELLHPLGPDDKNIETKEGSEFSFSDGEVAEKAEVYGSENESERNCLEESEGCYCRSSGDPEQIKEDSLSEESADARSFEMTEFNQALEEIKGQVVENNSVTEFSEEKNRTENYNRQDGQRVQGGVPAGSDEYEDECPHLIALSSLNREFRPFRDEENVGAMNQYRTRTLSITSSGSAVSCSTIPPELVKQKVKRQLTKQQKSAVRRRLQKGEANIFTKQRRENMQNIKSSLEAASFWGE
To be noted: kinase RIOK2; for remaining activity at 1 µM: read-out: RIOK2 (% of control at 1 µM).

For assay [10], the target named is T10, panel of 442 kinases (Homo sapiens, UniProt Q9NSY1).
T10 construct: purchased Ambit Biosciences (scanMAXX KINOMEscan)
T10 sequence (Q9NSY1 whole entry): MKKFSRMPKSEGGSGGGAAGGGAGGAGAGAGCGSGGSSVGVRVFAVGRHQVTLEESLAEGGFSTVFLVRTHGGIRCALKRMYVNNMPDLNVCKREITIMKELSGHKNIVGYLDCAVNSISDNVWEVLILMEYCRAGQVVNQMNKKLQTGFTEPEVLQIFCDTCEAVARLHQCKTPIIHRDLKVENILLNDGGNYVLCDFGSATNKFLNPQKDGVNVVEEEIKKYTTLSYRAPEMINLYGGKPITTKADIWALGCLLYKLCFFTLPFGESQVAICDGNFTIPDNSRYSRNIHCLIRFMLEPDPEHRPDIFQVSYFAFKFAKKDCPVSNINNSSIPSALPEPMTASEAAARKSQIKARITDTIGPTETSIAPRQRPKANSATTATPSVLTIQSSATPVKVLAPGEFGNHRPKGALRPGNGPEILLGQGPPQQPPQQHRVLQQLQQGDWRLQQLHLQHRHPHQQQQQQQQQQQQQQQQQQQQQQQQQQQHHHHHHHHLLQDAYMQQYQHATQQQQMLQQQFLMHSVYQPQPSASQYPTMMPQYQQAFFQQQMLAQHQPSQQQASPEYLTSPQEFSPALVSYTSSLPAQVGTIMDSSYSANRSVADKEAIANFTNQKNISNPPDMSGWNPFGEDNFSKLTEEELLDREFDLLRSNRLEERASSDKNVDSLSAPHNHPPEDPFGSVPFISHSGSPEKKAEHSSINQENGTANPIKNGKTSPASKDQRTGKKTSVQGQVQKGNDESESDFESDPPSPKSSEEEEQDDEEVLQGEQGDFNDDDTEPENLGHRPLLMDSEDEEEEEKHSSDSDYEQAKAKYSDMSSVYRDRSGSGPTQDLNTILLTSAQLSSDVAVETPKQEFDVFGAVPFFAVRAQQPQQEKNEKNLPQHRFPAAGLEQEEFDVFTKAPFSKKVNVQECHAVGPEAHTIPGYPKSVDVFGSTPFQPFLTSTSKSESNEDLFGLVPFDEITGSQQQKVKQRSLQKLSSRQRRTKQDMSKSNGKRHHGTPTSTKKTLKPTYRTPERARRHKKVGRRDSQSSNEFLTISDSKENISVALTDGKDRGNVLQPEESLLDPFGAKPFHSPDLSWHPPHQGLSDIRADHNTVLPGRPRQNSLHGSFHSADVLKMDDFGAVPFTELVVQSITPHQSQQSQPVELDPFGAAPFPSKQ
Conditions: BIKE; for remaining activity at 1 µM: read-out: % of control at 1 µM.

Assay [11] concerns the target T11, panel of 442 kinases (Homo sapiens, UniProt Q16659).
T11 construct: purchased Ambit Biosciences (scanMAXX KINOMEscan)
Conditions: ERK3; for remaining activity at 1 µM: read-out: % of control at 1 µM.

Assay [12] concerns the target T12, panel of 442 kinases (Homo sapiens, UniProt P00533, DEL746-750).
T12 construct: purchased Ambit Biosciences (scanMAXX KINOMEscan)
To be noted: EGFR(E746-A750del); for remaining activity at 1 µM: read-out: % of control at 1 µM.

Assay [13] addresses T13, panel of 442 kinases (Homo sapiens, UniProt Q16512).
T13 construct: purchased Ambit Biosciences (scanMAXX KINOMEscan)
Conditions: kinase PKN1; for remaining activity at 1 µM: read-out: PKN1 (% of control at 1 µM).

Setting [14] is: 10 µM, read-out: % of control at 10 µM.

T7 sequence (Q5S007 whole entry): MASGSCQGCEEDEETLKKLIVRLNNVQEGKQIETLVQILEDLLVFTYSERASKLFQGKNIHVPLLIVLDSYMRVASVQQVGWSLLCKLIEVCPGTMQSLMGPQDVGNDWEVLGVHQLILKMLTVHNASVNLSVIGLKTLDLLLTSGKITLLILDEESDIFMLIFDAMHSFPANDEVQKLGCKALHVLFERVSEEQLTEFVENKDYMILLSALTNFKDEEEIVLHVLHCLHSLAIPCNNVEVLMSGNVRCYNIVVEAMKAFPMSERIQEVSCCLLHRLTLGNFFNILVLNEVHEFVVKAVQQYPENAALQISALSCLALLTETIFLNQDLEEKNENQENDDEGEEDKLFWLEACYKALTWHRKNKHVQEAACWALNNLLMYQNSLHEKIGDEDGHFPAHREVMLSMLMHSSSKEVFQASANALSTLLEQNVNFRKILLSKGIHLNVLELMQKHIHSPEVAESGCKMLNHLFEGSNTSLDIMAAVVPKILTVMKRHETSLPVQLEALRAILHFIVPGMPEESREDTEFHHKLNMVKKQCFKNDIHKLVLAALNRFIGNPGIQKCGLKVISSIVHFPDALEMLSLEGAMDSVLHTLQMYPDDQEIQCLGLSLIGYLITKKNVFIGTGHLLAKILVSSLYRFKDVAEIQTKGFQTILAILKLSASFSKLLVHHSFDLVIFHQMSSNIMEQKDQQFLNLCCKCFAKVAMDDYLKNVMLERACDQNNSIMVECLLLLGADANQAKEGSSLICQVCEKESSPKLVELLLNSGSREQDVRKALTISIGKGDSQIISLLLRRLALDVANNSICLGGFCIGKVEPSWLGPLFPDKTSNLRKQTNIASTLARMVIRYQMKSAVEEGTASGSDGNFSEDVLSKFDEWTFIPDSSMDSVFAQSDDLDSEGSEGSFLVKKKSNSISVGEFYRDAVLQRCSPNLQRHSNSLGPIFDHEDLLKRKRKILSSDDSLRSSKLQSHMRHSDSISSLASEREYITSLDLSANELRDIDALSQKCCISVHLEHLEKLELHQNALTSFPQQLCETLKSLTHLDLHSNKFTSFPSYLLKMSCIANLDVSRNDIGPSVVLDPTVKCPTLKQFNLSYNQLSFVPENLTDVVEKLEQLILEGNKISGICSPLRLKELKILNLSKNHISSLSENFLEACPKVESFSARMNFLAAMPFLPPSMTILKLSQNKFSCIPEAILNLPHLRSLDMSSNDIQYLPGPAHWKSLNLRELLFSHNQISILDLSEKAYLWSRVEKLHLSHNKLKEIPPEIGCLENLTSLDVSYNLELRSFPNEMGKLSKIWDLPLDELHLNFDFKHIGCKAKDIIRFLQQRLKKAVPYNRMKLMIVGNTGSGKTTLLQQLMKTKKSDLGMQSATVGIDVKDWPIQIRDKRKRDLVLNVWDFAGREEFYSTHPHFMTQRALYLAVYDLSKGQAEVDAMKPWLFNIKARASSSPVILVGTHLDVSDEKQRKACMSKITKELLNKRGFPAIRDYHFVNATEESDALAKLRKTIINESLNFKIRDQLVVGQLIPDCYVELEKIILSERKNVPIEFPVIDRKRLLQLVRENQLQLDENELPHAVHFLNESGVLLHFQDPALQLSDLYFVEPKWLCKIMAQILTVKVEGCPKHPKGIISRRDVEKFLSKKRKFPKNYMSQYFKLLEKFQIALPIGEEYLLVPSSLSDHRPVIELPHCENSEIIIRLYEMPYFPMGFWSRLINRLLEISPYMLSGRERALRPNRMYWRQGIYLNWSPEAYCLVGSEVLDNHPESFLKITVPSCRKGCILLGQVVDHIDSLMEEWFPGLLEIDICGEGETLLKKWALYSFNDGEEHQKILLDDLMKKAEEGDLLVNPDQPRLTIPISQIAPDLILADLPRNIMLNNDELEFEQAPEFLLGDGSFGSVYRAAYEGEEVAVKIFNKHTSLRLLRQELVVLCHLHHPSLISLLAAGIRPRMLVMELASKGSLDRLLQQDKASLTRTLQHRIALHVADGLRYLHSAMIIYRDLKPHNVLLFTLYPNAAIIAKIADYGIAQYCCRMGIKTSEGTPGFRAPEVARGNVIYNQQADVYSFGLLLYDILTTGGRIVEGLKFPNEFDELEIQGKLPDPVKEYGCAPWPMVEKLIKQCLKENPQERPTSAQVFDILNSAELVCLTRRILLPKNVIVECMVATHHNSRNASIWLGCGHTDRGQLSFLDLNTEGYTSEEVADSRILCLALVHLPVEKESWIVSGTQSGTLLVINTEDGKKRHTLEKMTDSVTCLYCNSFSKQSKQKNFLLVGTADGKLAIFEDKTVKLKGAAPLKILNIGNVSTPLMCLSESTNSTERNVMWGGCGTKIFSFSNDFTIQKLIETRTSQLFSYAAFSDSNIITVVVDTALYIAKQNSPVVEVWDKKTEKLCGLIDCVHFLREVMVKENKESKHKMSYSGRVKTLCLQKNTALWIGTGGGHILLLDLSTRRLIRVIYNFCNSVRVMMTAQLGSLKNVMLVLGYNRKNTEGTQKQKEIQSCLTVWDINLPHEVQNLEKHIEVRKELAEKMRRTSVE
T5 sequence (Q05655 whole entry): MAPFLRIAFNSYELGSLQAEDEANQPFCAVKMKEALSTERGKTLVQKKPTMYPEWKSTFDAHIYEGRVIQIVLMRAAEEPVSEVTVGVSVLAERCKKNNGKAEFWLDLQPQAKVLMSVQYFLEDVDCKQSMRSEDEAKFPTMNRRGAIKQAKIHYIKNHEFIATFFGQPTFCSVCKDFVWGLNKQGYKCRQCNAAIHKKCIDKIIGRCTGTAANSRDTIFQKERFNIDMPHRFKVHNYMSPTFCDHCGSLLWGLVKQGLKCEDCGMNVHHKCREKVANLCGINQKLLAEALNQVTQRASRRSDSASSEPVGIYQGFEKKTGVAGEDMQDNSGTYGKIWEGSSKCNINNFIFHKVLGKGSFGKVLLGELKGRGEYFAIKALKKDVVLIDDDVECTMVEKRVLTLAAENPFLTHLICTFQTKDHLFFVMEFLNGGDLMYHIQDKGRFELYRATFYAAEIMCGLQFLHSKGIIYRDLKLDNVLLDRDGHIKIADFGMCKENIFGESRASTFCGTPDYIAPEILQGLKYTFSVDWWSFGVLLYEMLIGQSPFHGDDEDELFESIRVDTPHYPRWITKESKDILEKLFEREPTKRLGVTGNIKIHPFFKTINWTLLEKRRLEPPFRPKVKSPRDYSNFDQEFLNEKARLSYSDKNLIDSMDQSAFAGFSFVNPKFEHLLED

Turning to `COc1ncc(-c2ccc3nccc(-c4ccnnc4)c3c2)cc1NS(=O)(=O)c1ccc(F)cc1F` [Omipalisib], the remaining activity at 1 µM turned out to be 100% at panel of 442 kinases [1]; 53% on panel of 442 kinases [2]; 100% on panel of 442 kinases [3]; 83% on panel of 442 kinases [4]; 74% on panel of 442 kinases [5]; 100% at panel of 442 kinases [6]. Further, the remaining activity at 1 µM on panel of 442 kinases [7] is 96%; at panel of 442 kinases [8] it was 78%; on panel of 442 kinases [9] it was 100%; at panel of 442 kinases [10] it was 82%; at panel of 442 kinases [11], 85%; on panel of 442 kinases [12] it was 97%. At panel of 442 kinases [13], the remaining activity at 1 µM is 94%.
For the compound `Cn1c(=O)n(-c2ccc(C(C)(C)C#N)cc2)c2c3cc(-c4cnc5ccccc5c4)ccc3ncc21` [Dactolisib, 2-methyl-2-[4-(3-methyl-2-oxo-8-quinolin-3-yl-2,3-dihydroimidazo[4,5-c]quinolin-1-yl)-phenyl] propionitrile], the remaining activity at 1 µM on panel of 442 kinases [1] was found to be 100%; at panel of 442 kinases [2], 43%; on panel of 442 kinases [3], 100%; on panel of 442 kinases [4], 49%; at panel of 442 kinases [5], 86%; on panel of 442 kinases [6] it was 66%. Further, the remaining activity at 1 µM at panel of 442 kinases [7] is 52%; at panel of 442 kinases [8], 91%; at panel of 442 kinases [9], 65%; at panel of 442 kinases [10] it was 53%; at panel of 442 kinases [11], 97%; on panel of 442 kinases [12], 100%. The remaining activity at 1 µM on panel of 442 kinases [13] was 100%.
In the case of `Nc1cc(C(F)(F)F)c(-c2cc(N3CCOCC3)nc(N3CCOCC3)n2)cn1` [Buparlisib], the remaining activity at 1 µM at panel of 442 kinases [1] was 98%; on panel of 442 kinases [2] it was 89%; on panel of 442 kinases [3] it was 83%; at panel of 442 kinases [4] it was 100%; at panel of 442 kinases [5], 100%; on panel of 442 kinases [6], 89%. Besides, the remaining activity at 1 µM at panel of 442 kinases [7] worked out at 80%; at panel of 442 kinases [8], 100%; on panel of 442 kinases [9], 100%; at panel of 442 kinases [10], 98%; at panel of 442 kinases [11], 96%; at panel of 442 kinases [12], 100%. Besides, at panel of 442 kinases [13], the remaining activity at 1 µM amounted to 89%. Moreover, the remaining activity at 10 µM worked out at 100% on panel of 442 kinases [1] (setting [14]); 84% at panel of 442 kinases [2] (setting [14]); 87% on panel of 442 kinases [3] (setting [14]); 100% on panel of 442 kinases [4] (setting [14]); 100% on panel of 442 kinases [5] (10 µM, read-out: PRKCD (% of control at 10 µM)); 81% at panel of 442 kinases [6] (10 µM, read-out: RIOK1 (% of control at 10 µM)). Also, the remaining activity at 10 µM on panel of 442 kinases [7] (setting [14]) came out at 100%; at panel of 442 kinases [8] (10 µM, read-out: RIPK1 (% of control at 10 µM)) it was 100%; on panel of 442 kinases [9] (10 µM, read-out: RIOK2 (% of control at 10 µM)) it was 100%; at panel of 442 kinases [10] (setting [14]), 100%; at panel of 442 kinases [11] (setting [14]), 99%; at panel of 442 kinases [12] (setting [14]), 100%. Further, the remaining activity at 10 µM on panel of 442 kinases [13] (10 µM, read-out: PKN1 (% of control at 10 µM)) was 100%.
As for `FC(F)c1nc2ccccc2n1-c1nc(N2CCOCC2)nc(N2CCOCC2)n1` [ZSTK474, 2-(difluoromethyl)-1-[4,6-di(4-morpholinyl)-1,3,5-triazin-2-yl]-1H-benzimidazole], the remaining activity at 1 µM on panel of 442 kinases [1] amounted to 100%; at panel of 442 kinases [2], 76%; at panel of 442 kinases [3], 100%; on panel of 442 kinases [4] it was 100%; on panel of 442 kinases [5], 100%; on panel of 442 kinases [6], 84%. Moreover, the remaining activity at 1 µM on panel of 442 kinases [7] came to 100%; at panel of 442 kinases [8], 98%; at panel of 442 kinases [9] it was 39%; at panel of 442 kinases [10], 53%; at panel of 442 kinases [11], 100%; on panel of 442 kinases [12], 94%. Moreover, at panel of 442 kinases [13], the remaining activity at 1 µM was determined as 90%.

The record behind these values is paper PMC5564600 (Oncotarget, 2017).
